How the values were obtained:
[1] = test system: enzyme system of liver; conditions: cited from earlier work
[2] = Ethanolic narcosis period test (Table 1, 1 hour oral pretreatment); format: in vivo, Hann.-Wistar rats; conditions: 1 hour before ethanol i.p., n=10, control = 100 ± 7.9
Method: (§1) The effect of the compounds according to the invention on ethanolic narcosis period was tested on Hann.-Wistar rats of both sexes, each weighing 160 to 180 g. The animals were fasted for 16 hours prior to treatment and tests were performed on groups of 10. The animals were treated with various doses of the test compounds orally. One hour after treatment the rats were administered a […]. dose of ethanol intraperitoneally, and their narcosis period was measured from the elapse of the righting reflex until a spontaneous correction of the body position. The mean value of the narcosis period and the percentage difference related to the control were calculated. The results are given in Table 1. x±S.E.=mean value±standard error n=number of animals The control group was treated with placebo and a 3.5 mg./kg. dose of ethanol. Narcosis period of the control: 87.4±6.91 (x±S.E.) min.

[3] = Ethanolic narcosis period as a function of the pretreatment period (Table 2); format: in vivo, Hann.-Wistar rats; conditions: 40.0 mg./kg. oral, n=10
Method: as §1, with “calculated.” for “calculated. The results are given in Table 1. x±S.E.=mean value±standard error n=number of animals The control group was treated with placebo and a 3.5 mg./kg. dose of ethanol. Narcosis period of the control: 87.4±6.91 (x±S.E.) min.”
There was examined the effect of a 40.0 mg./kg. dose of the above test compound on the ethanolic narcosis period as a function of the pretreatment-period, following the test procedure described above.

[4] = Acute toxicity, single oral dose, 14 days observation; format: in vivo
Method: The acute toxicity of the compound A was determined on Hann.-Wistar rats of both sexes, each weighing 160 to 180 g. in groups of 10. The animals were administered a single 2000 mg./kg. oral dose of the test compound, and then observed for 14 days.

[5] = in vivo; cited from earlier work
[6] = in vivo; cited from earlier work; remark: listed apart in the source
[7] = cited from earlier work

CCC(O)(c1ccccc1)c1cc(C)ccc1C (stereo not drawn) [2,5-dimethyl-α-ethyl-benzhydrol]
Inducing effect on the enzyme system of liver [1]: shows a similar activity

CCC(O)(c1ccccc1)c1cccc(C(F)(F)F)c1 (stereo not drawn) [3-trifluoromethyl-α-ethyl-benzhydrol]
Inducing effect on the enzyme system of liver [1]: has an inducing effect on the enzyme system of liver

CCC(O)(c1ccc(O)cc1)c1cccc(C(F)(F)F)c1 (stereo not drawn) [A, 3-trifluoromethyl-4'-hydroxy-α-ethyl-benzhydrol]
Ethanolic narcosis period (Control ± S.E. %) ([2]; 40.0 mg./kg. oral): 53 ± 5.8%
Ethanolic narcosis period (Control ± S.E. %) ([2]; 80.0 mg./kg. oral): 62 ± 5.1%
Narcosis period, treated ([3]; pretreatment 0.5 hours, control 87.2 ± 6.23): 54.1 ± 3.49
Narcosis period, % difference from the control ([3]; pretreatment 0.5 hours): -38%
Narcosis period, treated ([3]; pretreatment 1.0 hours, control 85.1 ± 4.91): 45.1 ± 2.30
Narcosis period, % difference from the control ([3]; pretreatment 1.0 hours): -47%
Narcosis period, treated ([3]; pretreatment 2.0 hours, control 85.5 ± 9.97): 29.9 ± 5.08
Narcosis period, % difference from the control ([3]; pretreatment 2.0 hours): -65%
Narcosis period, treated ([3]; pretreatment 3.0 hours, control 83.4 ± 8.46): 75.1 ± 4.51
Narcosis period, % difference from the control ([3]; pretreatment 3.0 hours): -10%
Toxicity ([4]; oral, single dose): toxicity is low
LD50 at 336 h ([4]; rat, in vivo, oral, single dose, 14 days observation): > 2000 mg/kg
mortality at 336 h ([4]; rat, in vivo, single 2000 mg./kg. oral dose, 14 days observation, read-out: Animals perished): 40%

N[C@@H](CS)C(=O)O [L-cysteine, reference compound]
Ethanolic narcosis period (Control ± S.E. %) ([2]; 500.0 mg./kg. oral): 63 ± 4.2%
Ethanolic narcosis period (Control ± S.E. %) ([2]; 1000.0 mg./kg. oral): 66 ± 5.9%
Alcoholic intoxication [5]: shortened
Alcoholic narcosis [5]: shortened

CC(N)Cc1ccccc1 (stereo not shown) [amphetamine]
Motoric incoordination (ataxia) [6]: prolong the motoric incoordination (ataxia)
Narcotizing effect of alcohol [6]: decrease the narcotizing effect of alcohol

Cn1c(=O)c2c(ncn2C)n(C)c1=O [caffeine]
Motoric incoordination (ataxia) [6]: prolong the motoric incoordination (ataxia)
Narcotizing effect of alcohol [6]: decrease the narcotizing effect of alcohol

CC(N)(Cc1ccc(O)cc1)C(=O)O (stereo not drawn) [α-Methyl-p-tyrosine]
Effect on locomotoric hyperactivity ([7]; mice, dose range in which spontaneous locomotor activity is decreased): normalizing effect
Spontaneous locomotor activity ([7]; same dose range as normalizing effect on hyperactivity): decreases the spontaneous locomotor activity

From patent publication US4593047A, “Process for the preparation of 3-trifluoromethyl-and 2,5-dimethyl-4'-hdyroxy-α-ethyl-benzhydrol, and pharmaceutical compositions containing them” (Richter Gedeon Vegyeszeti Cyar RT, priority 1982, dated 1986)
